According to PubChem BioAssay AID1918998 (Molecular Pharmacology Branch, DTP, NCI, 2023):
pIC50: −log10 of the molar value.

Tested on: 521955-158-R2-J5-PDC complex spheroid growth
Assay: Anticancer human tumor 521955-158-R2-J5-PDC patient-derived pancreatic carcinoma cell line growth inhibition [AhR]
Conditions: for pIC50: curve of first compound; for viability, T/C: stronger effect = lower value
Method in brief: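 Spheroids combined tumor cells with HUVEC endothelial cells and human MSCs as stroma. AhR antagonists were paired with standard or investigational drugs, each dosed in half-log steps down from near clinical Cmax, or from 10 microM where Cmax was unknown.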

[1] = second compound 0.1 µM, first compound 0.000949 µM
[2] = second compound 0.1 µM, first compound 0.003 µM
[3] = second compound 0.1 µM, first compound 0.00949 µM
[4] = second compound 0.1 µM, first compound 0.03 µM
[5] = second compound 0.1 µM, first compound 0.0949 µM
[6] = second compound 0.1 µM, first compound 0.3 µM
[7] = second compound 0.316 µM, first compound 0.000949 µM
[8] = second compound 0.316 µM, first compound 0.003 µM
[9] = second compound 0.316 µM, first compound 0.00949 µM
[10] = second compound 0.316 µM, first compound 0.03 µM
[11] = second compound 0.316 µM, first compound 0.0949 µM
[12] = second compound 0.316 µM, first compound 0.3 µM
[13] = second compound 1 µM, first compound 0.000949 µM
[14] = second compound 1 µM, first compound 0.003 µM
[15] = second compound 1 µM, first compound 0.00949 µM
[16] = second compound 1 µM, first compound 0.03 µM
[17] = second compound 1 µM, first compound 0.0949 µM
[18] = second compound 1 µM, first compound 0.3 µM
[19] = second compound 3.16 µM, first compound 0.000949 µM
[20] = second compound 3.16 µM, first compound 0.003 µM
[21] = second compound 3.16 µM, first compound 0.00949 µM
[22] = second compound 3.16 µM, first compound 0.03 µM
[23] = second compound 3.16 µM, first compound 0.0949 µM
[24] = second compound 3.16 µM, first compound 0.3 µM
[25] = second compound 10 µM, first compound 0.000949 µM
[26] = second compound 10 µM, first compound 0.003 µM
[27] = second compound 10 µM, first compound 0.00949 µM
[28] = second compound 10 µM, first compound 0.03 µM
[29] = second compound 10 µM, first compound 0.0949 µM
[30] = second compound 10 µM, first compound 0.3 µM
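Wherever viability, T/C is given: spheroids mix tumor cells with HUVEC endothelium and human MSC stroma; luminescence taken as viability surrogate after a week of drug exposure.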

CC(C)CC(NC(=O)C(Cc1ccccc1)NC(=O)c1cnccn1)B(O)O (stereo not given) + Cc1cncc(-c2nc(NCCc3c[nH]c4ccccc34)c3ncn(C(C)C)c3n2)c1
pIC50 (second compound 0.1 µM): 7.78 | pIC50 (second compound 0.316 µM): 7.78 | pIC50 (second compound 1 µM): 7.77 | pIC50 (second compound 3.16 µM): 7.82 | pIC50 (second compound 10 µM): 8.19 | viability, T/C [1]: 103% | viability, T/C [2]: 103% | viability, T/C [3]: 91.8% | viability, T/C [4]: 4.93% | viability, T/C [5]: 0.17% | viability, T/C [6]: 0.27% | viability, T/C [7]: 118% | viability, T/C [8]: 92.1% | viability, T/C [9]: 97.5% | viability, T/C [10]: 0.39% | viability, T/C [11]: 0.25% | viability, T/C [12]: 0.21% | viability, T/C [13]: 107% | viability, T/C [14]: 128% | viability, T/C [15]: 98.2% | viability, T/C [16]: 1.49% | viability, T/C [17]: 2.14% | viability, T/C [18]: 0.89% | viability, T/C [19]: 141% | viability, T/C [20]: 127% | viability, T/C [21]: 81.7% | viability, T/C [22]: 0.28% | viability, T/C [23]: 2.97% | viability, T/C [24]: 2.29% | viability, T/C [25]: 144% | viability, T/C [26]: 126% | viability, T/C [27]: 11.6% | viability, T/C [28]: 0.28% | viability, T/C [29]: 2.54% | viability, T/C [30]: 0.26%

CCc1c2c(nc3ccc(O)cc13)-c1cc3c(c(=O)n1C2)COC(=O)[C@]3(O)CC + Cc1cncc(-c2nc(NCCc3c[nH]c4ccccc34)c3ncn(C(C)C)c3n2)c1
pIC50 (second compound 0.1 µM): 8.39 | pIC50 (second compound 0.316 µM): 8.40 | pIC50 (second compound 1 µM): 8.38 | pIC50 (second compound 3.16 µM): 8.38 | pIC50 (second compound 10 µM): 8.52 | viability, T/C [1]: 78.5% | viability, T/C [2]: 58.6% | viability, T/C [3]: 25.2% | viability, T/C [4]: 16.5% | viability, T/C [5]: 14.9% | viability, T/C [6]: 12.5% | viability, T/C [7]: 70.1% | viability, T/C [8]: 57.8% | viability, T/C [9]: 26.5% | viability, T/C [10]: 18% | viability, T/C [11]: 12.4% | viability, T/C [12]: 12.3% | viability, T/C [13]: 90.1% | viability, T/C [14]: 60% | viability, T/C [15]: 24.5% | viability, T/C [16]: 21% | viability, T/C [17]: 16.4% | viability, T/C [18]: 15.2% | viability, T/C [19]: 70.4% | viability, T/C [20]: 58.7% | viability, T/C [21]: 29.7% | viability, T/C [22]: 18.2% | viability, T/C [23]: 16.7% | viability, T/C [24]: 10.5% | viability, T/C [25]: 98.9% | viability, T/C [26]: 49.8% | viability, T/C [27]: 24.1% | viability, T/C [28]: 15.3% | viability, T/C [29]: 8.29% | viability, T/C [30]: 4.78%

COc1cc(Nc2ncc3c(n2)-c2ccc(Cl)cc2C(c2c(F)cccc2OC)=NC3)ccc1C(=O)O + Cc1cncc(-c2nc(NCCc3c[nH]c4ccccc34)c3ncn(C(C)C)c3n2)c1
pIC50 (second compound 0.1 µM): < 5.00 | pIC50 (second compound 0.316 µM): < 5.00 | pIC50 (second compound 1 µM): < 5.00 | pIC50 (second compound 3.16 µM): < 5.00 | pIC50 (second compound 10 µM): < 5.00 | viability, T/C (second compound 0.1 µM, first compound 0.0316 µM): 100% | viability, T/C (second compound 0.1 µM, first compound 0.1 µM): 78.8% | viability, T/C (second compound 0.1 µM, first compound 0.316 µM): 78.8% | viability, T/C (second compound 0.1 µM, first compound 1 µM): 72.3% | viability, T/C (second compound 0.1 µM, first compound 3.16 µM): 80.1% | viability, T/C (second compound 0.1 µM, first compound 10 µM): 74.2% | viability, T/C (second compound 0.316 µM, first compound 0.0316 µM): 99.7% | viability, T/C (second compound 0.316 µM, first compound 0.1 µM): 79.9% | viability, T/C (second compound 0.316 µM, first compound 0.316 µM): 87.1% | viability, T/C (second compound 0.316 µM, first compound 1 µM): 73.1% | viability, T/C (second compound 0.316 µM, first compound 3.16 µM): 68% | viability, T/C (second compound 0.316 µM, first compound 10 µM): 60.9% | viability, T/C (second compound 1 µM, first compound 0.0316 µM): 109% | viability, T/C (second compound 1 µM, first compound 0.1 µM): 88.5% | viability, T/C (second compound 1 µM, first compound 0.316 µM): 103% | viability, T/C (second compound 1 µM, first compound 1 µM): 83.2% | viability, T/C (second compound 1 µM, first compound 3.16 µM): 70.7% | viability, T/C (second compound 1 µM, first compound 10 µM): 70.4% | viability, T/C (second compound 3.16 µM, first compound 0.0316 µM): 127% | viability, T/C (second compound 3.16 µM, first compound 0.1 µM): 107% | viability, T/C (second compound 3.16 µM, first compound 0.316 µM): 97.5% | viability, T/C (second compound 3.16 µM, first compound 1 µM): 90.8% | viability, T/C (second compound 3.16 µM, first compound 3.16 µM): 83% | viability, T/C (second compound 3.16 µM, first compound 10 µM): 76.7% | viability, T/C (second compound 10 µM, first compound 0.0316 µM): 125% | viability, T/C (second compound 10 µM, first compound 0.1 µM): 88.4% | viability, T/C (second compound 10 µM, first compound 0.316 µM): 76.2% | viability, T/C (second compound 10 µM, first compound 1 µM): 84.3% | viability, T/C (second compound 10 µM, first compound 3.16 µM): 62.8% | viability, T/C (second compound 10 µM, first compound 10 µM): 81.3%
